Laboratory results as given in the NIST ThermoML archive (doi:10.1021/acs.jced.6b00657).

Assay: xn = mol fraction of the nth substance listed
Details: Liquid, absorption in thin film, x2 = 0

CCCCCCCCn1cc[n+](C)c1.N#CC(=C=[N-])C#N [1-methyl-3-octylimidazolium tricyanomethanide] + O=C=O
Details	binary diffusion coefficient [m2/s]
298.15 K, 94 kPa	1.5e-10
298.15 K, 194 kPa	1.9e-10
298.15 K, 293 kPa	1.8e-10
298.15 K, 393 kPa	2e-10
298.15 K, 593 kPa	2e-10
308.15 K, 194 kPa	2.3e-10
308.15 K, 294 kPa	2.4e-10
308.15 K, 393 kPa	2.5e-10
308.15 K, 493 kPa	2.5e-10
308.15 K, 593 kPa	2.5e-10
308.15 K, 693 kPa	2.7e-10
308.15 K, 793 kPa	2.7e-10
308.15 K, 893 kPa	3e-10
308.15 K, 992 kPa	3.1e-10
308.15 K, 1093 kPa	2.7e-10
308.15 K, 1193 kPa	2.5e-10
308.15 K, 1293 kPa	3.2e-10
308.15 K, 1392 kPa	3.3e-10
308.15 K, 1492 kPa	3.5e-10
308.15 K, 1593 kPa	3.4e-10
308.15 K, 1693 kPa	3.8e-10
308.15 K, 1793 kPa	4e-10
308.15 K, 1892 kPa	3.9e-10
308.15 K, 1993 kPa	3.9e-10
323.15 K, 94 kPa	3.2e-10
323.15 K, 194 kPa	3.4e-10
323.15 K, 293 kPa	3.5e-10
323.15 K, 393 kPa	3.3e-10
323.15 K, 493 kPa	3.3e-10
323.15 K, 593 kPa	3.6e-10
323.15 K, 693 kPa	3.9e-10
323.15 K, 793 kPa	4e-10
323.15 K, 893 kPa	3.9e-10
323.15 K, 992 kPa	3.9e-10
323.15 K, 1093 kPa	3.8e-10
323.15 K, 1193 kPa	3.6e-10
323.15 K, 1292 kPa	3.9e-10
323.15 K, 1393 kPa	4e-10
323.15 K, 1493 kPa	4.2e-10
323.15 K, 1593 kPa	4.1e-10
323.15 K, 1692 kPa	4.6e-10
323.15 K, 1793 kPa	3.9e-10
323.15 K, 1892 kPa	4.5e-10
323.15 K, 1993 kPa	4.4e-10
338.25 K, 94 kPa	4.3e-10
338.25 K, 194 kPa	4.1e-10
338.25 K, 294 kPa	4.5e-10
338.25 K, 394 kPa	4.4e-10
338.25 K, 494 kPa	4.2e-10
338.25 K, 593 kPa	4.8e-10
338.25 K, 692 kPa	4.3e-10
338.25 K, 794 kPa	4.7e-10
338.25 K, 892 kPa	4.2e-10
338.25 K, 993 kPa	3.8e-10
338.25 K, 1093 kPa	5e-10
338.25 K, 1193 kPa	5.1e-10
338.25 K, 1292 kPa	5e-10
338.25 K, 1392 kPa	4.9e-10
338.25 K, 1493 kPa	5e-10
338.25 K, 1692 kPa	6e-10
338.25 K, 1793 kPa	5.9e-10
338.25 K, 1892 kPa	5.5e-10
338.25 K, 1993 kPa	5.2e-10
353.25 K, 494 kPa	5.7e-10
353.25 K, 594 kPa	5.5e-10
353.25 K, 993 kPa	6e-10
353.25 K, 1093 kPa	6.7e-10
353.25 K, 1193 kPa	5.1e-10
353.25 K, 1293 kPa	4.7e-10
353.25 K, 1392 kPa	6.5e-10
353.25 K, 1493 kPa	5.6e-10
353.25 K, 1793 kPa	7.6e-10
353.25 K, 1893 kPa	5.8e-10

CCCCCCCn1cc[n+](C)c1.N#C[C-](C#N)C#N [1-heptyl-3-methylimidazolium tricyanomethanide] + O=C=O
Details	binary diffusion coefficient [m2/s]
298.15 K, 93 kPa	2e-10
298.15 K, 193 kPa	1.6e-10
298.15 K, 293 kPa	1.7e-10
298.15 K, 393 kPa	1.9e-10
298.15 K, 492 kPa	2e-10
298.15 K, 692 kPa	2.3e-10
298.15 K, 792 kPa	2.4e-10
298.15 K, 893 kPa	2.5e-10
298.15 K, 993 kPa	2.7e-10
298.15 K, 1193 kPa	3.1e-10
298.15 K, 1293 kPa	2.9e-10
298.15 K, 1392 kPa	2.9e-10
298.15 K, 1493 kPa	3.1e-10
298.15 K, 1693 kPa	2.8e-10
298.15 K, 1792 kPa	3.1e-10
298.15 K, 1893 kPa	3.6e-10
298.15 K, 1993 kPa	3.5e-10
308.15 K, 94 kPa	2.6e-10
308.15 K, 194 kPa	2.3e-10
308.15 K, 294 kPa	2.4e-10
308.15 K, 394 kPa	2.8e-10
308.15 K, 493 kPa	2.8e-10
308.15 K, 593 kPa	2.9e-10
308.15 K, 693 kPa	2.7e-10
308.15 K, 993 kPa	3e-10
308.15 K, 1093 kPa	3.2e-10
308.15 K, 1192 kPa	3.4e-10
308.15 K, 1293 kPa	3.3e-10
308.15 K, 1392 kPa	3.5e-10
308.15 K, 1493 kPa	3.6e-10
308.15 K, 1893 kPa	3.9e-10
308.15 K, 1993 kPa	4.2e-10
323.15 K, 95 kPa	3.2e-10
323.15 K, 195 kPa	4e-10
323.15 K, 294 kPa	3.8e-10
323.15 K, 394 kPa	3.5e-10
323.15 K, 494 kPa	3.8e-10
323.15 K, 594 kPa	3.9e-10
323.15 K, 692 kPa	3.2e-10
323.15 K, 793 kPa	4e-10
323.15 K, 893 kPa	3.5e-10
323.15 K, 993 kPa	4.4e-10
323.15 K, 1093 kPa	4.2e-10
323.15 K, 1192 kPa	4.4e-10
323.15 K, 1293 kPa	3.2e-10
338.25 K, 95 kPa	4.5e-10
338.25 K, 196 kPa	4.4e-10
338.25 K, 295 kPa	4.3e-10
338.25 K, 394 kPa	5.3e-10
338.25 K, 493 kPa	4.7e-10
338.25 K, 594 kPa	5.2e-10
338.25 K, 793 kPa	6.1e-10
338.25 K, 993 kPa	5.8e-10
338.25 K, 1093 kPa	5.6e-10
338.25 K, 1292 kPa	6.5e-10
338.25 K, 1392 kPa	5.6e-10
338.25 K, 1793 kPa	5.8e-10
338.25 K, 1893 kPa	5.6e-10
338.25 K, 1993 kPa	6.5e-10
353.25 K, 494 kPa	6.4e-10
353.25 K, 594 kPa	6.5e-10
353.25 K, 693 kPa	5.4e-10
353.25 K, 793 kPa	6e-10
353.25 K, 894 kPa	6.6e-10
353.25 K, 994 kPa	7.5e-10
353.25 K, 1094 kPa	5.7e-10
353.25 K, 1193 kPa	7.1e-10
